PMC12018048, “Intranasal kisspeptin administration rapidly stimulates gonadotropin release in humans” (eBioMedicine, 2025)

Tested on: plasma LH
Assay: Intranasal kisspeptin-54, plasma LH in adult C57BL/6J male mice
Assay type: in vivo, mouse
Settings: intranasal, 25 min post administration, N = 2
Procedure: Saline (placebo) or kisspeptin-54 were intranasally administered using a customised and unsharpened 2 mm long and 0.3 mm wide hypodermic needle (BD PrecisionGlide™; 30G; ref. 305106). Male mice were restrained and a single volume of 30 μL of the solution was delivered in one randomly chosen nostril with either 0.9% saline or different concentrations of kisspeptin-54 (1, 3, 12.8, 30, or 50 nM; equivalent to 0.001–0.05 nmol/kg). The protocol involved N = 5 mice per group, except concentrations 12.8 nM where N = 6 and 30 nM where N = 7. […] LH levels were assessed using a tail-tip serial blood sampling as previously reported.[64]^,[65] Briefly, samples containing 4 μL of whole blood were collected every 10 min over a 70-min-long period from each animal. The first sampling point was taken as baseline LH level (−5 min), and saline or kisspeptin-54 were administered at timepoint 0 min. Whole blood was collected into Eppendorf tubes pre-loaded with 50 μL of 0.1 M phosphate-buffered saline (PBS)-0.05% Tween, thoroughly mixed, and snap-frozen with dry ice and stored at −80 °C.
LH levels were measured using an established in-house and ultrasensitive mouse LH ELISA method as previously validated.[66] A primary coating antibody (bovine LHβ subunit, 518B7; L. Sibley; University of California, UC Davis, RRID AB_2756886) was used at a 1:1000 dilution in combination with a detection primary antibody (rabbit LH antiserum, AFP240580Rb, RRID AB_2665533; NIDDK- NHPP) used at 1:10,000 dilution, and a secondary horseradish peroxidase-conjugated antibody (goat anti-rabbit; Vector Laboratories, PI-1000, RRID AB_2336198) used at 1:10,000 dilution. The assay standard curve used a mouse LH-RP (AFP5306A, A. F. Parlow, National Hormone and Peptide Program; supplied by Golden West BioSolutions, California, USA; catalogue # TLIA1053.03). The assay sensitivity of this LH ELISA was 0.04 ng/mL, intra-assay coefficient of variation 4.1%, and inter-assay coefficient of variation 7.3%.
Statistical analyses were performed using GraphPad Prism (version 9.4.1). Data are presented as mean ± SEM. Normality of the data was determined using the Shapiro–Wilk test. The analysis considered increment in LH levels when average post-administration values were above significance (P < 0.05) compared to basal levels (−5 min) using repeated measures two-way ANOVA with Fishers least significant difference (LSD) test. Integrated LH response to kisspeptin-54 administration as indicated using the area under the curve (AUC) analysis when all peaks were above baseline values. The difference in AUC between groups was compared by one-way ANOVA with Fisher’s LSD test. In all cases, P < 0.05 was considered statistically significant.

In the case of “Dye-C-GTSLSPPPESSGSRQQPGLSAPHSRQIPAPQGAVLVQREKDLPNYNWNSFGLRF [kisspeptin-54-D2, Kisspeptin-54 labelled with a D2 fluorescent probe, developed by Cisbio Bioassays]”, the “Plasma LH response to the fluorescently tagged peptide” value is reported as “robust LH increase”.
